Results published in the NIST ThermoML archive (doi:10.1016/j.fluid.2014.05.034).
± gives the expanded uncertainty stated by the source.

Key:
[1] = Molar enthalpy of transition or fusion; settings: Crystal; DSC
[2] = for Normal melting temperature: Crystal; for mass density: 101.33 kPa, Liquid, Vibrating tube method

SMILES	Normal melting temperature ([2]; visual observation)	also measured
C[n+]1ccn(CC#N)c1.N#Cc1nc(C(F)(F)F)[n-]c1C#N	93.0 ± 1.1 °C	Molar enthalpy of transition or fusion [1]: 7.36 ± 0.213 kcal/mol; Normal melting temperature ([2]; DTA): 92.7 ± 0.5 °C
CCCCn1cc[n+](C)c1.N#CC1=NC(C(F)(F)F)=NC1=C=[N-]	–	mass density ([2]; 298.15 K): 1199.65 ± 5 kg/m3
CC[N+]1(C)CCCCC1.O=S(=O)([N-]S(=O)(=O)C(F)(F)F)C(F)(F)F	82.8 ± 1.1 °C	–
OCCc1ccccc1 [2-phenylethanol]	–	mass density ([2]; 293.15 K): 1019 ± 1 kg/m3
CCCCCC[n+]1ccc2ccccc2c1.O=S(=O)([N-]S(=O)(=O)C(F)(F)F)C(F)(F)F [N-hexylisoquinolinium bis(trifluoromethylsulfonyl)imide]	55.2 ± 1.1 °C	–
CCCCCC[n+]1cccc2ccccc21.O=S(=O)([N-]S(=O)(=O)C(F)(F)F)C(F)(F)F [1-hexylquinolinium bis(trifluoromethylsulfonyl)amide]	45 ± 1.1 °C	–
